Here are results for three compounds from US11596608B2, “Formulation” (INDEX PHARMACEUTICALS AB, priority 2018, dated 2023).

Oligonucleotides are written 5' to 3', each unit as a sugar letter and its base; * is a phosphorothioate linkage, no mark a phosphodiester; rarer units and linkages stand in square brackets, end groups in braces. Plain capitals give the bases only. d = 2'-deoxy (DNA)

The subject of series [1] is chronic active UC. As to conditions: cited from earlier work.
Series [2] is described as follows: Cobitolimod suspension limit in Capryol only. The settings on record: corresponding to 13-14% cobitolimod in Capryol PGMC. The format is physicochemical. Here is the method: The cobitolimod suspension limit in Capryol only was assessed by repeating the steps of (i) adding the API to Capryol, (ii) spatula stirring and (iii) sonication, until the suspension became unworkable due to, for example, being too viscous, agglomerates forming that would not break down etc.

Series [3] can be described thus: Chemical stability assessment of core formulations (HPLC assay and related substances). The class given is physicochemical. The settings on record: reference raw material. On the procedure:
The bulk mixes were assessed physically and chemically initially and following four weeks of storage at 40° C./75% RH. For the physical assessments, samples were assessed visually for appearance changes, focusing on colour and physical behaviour.
The samples were run on an X Bridge BEH C18, 2.5 μm, 4.6 mm×50 mm column with a flow rate of 0.4 ml/min at 60° C., a run time of 60 minutes and a detection wavelength of 260 nm. The sample injection volume was […] with a sampler temperature of 5° C. The mobile phase compositions were as follows: • Mobile phase A 3% Acetonitrile in 0.2% TEA, 1% HFIP, • Mobile phase B 12% Acetonitrile in 0.2% TEA, 1% HFIP, • Mobile phase C Acetonitrile, • Mobile phase D water.

Series [4] relates to UC. As to conditions: versus placebo; cited from earlier work.
The conditions of series [5]: observed during manufacture of Example 3 formulation.
Method: The vials were then high shear mixed for a minimum of 2×2 minutes then allowed to settle, all had visible insoluble material, therefore the samples were then high shear mixed for a further 2 minutes and visually assessed before samples taken for pH analysis. pH analysis involved centrifuging the sample at 14000 RPM for 10 minutes to separate out the insoluble material and then diluting 1 g of the clear supernatant with 3 g of deionised water, mixing thoroughly and measuring the pH.

For the compound “5′-G*G*A*ACAGTTCGTCCAT*G*G*C-3′ (DNA dG*dG*dA*dAdCdAdGdTdTdCdGdTdCdCdAdT*dG*dG*dC) [cobitolimod]”, the safety and tolerability entry in series [1] (human, in vivo) was “safe and well tolerated”. The clinical efficacy entry in series [1] (patients with chronic active UC) was “effective to induce clinical response and remission”. Moreover, the “limit of suspendability expressed per capsule” value in series [2] was “approx. 53 mg cobitolimod/capsule”. In series [3], this compound came in with an impurity level of 5.3 area %.
Regarding “vedolizumab: α4β7 integrin inhibitor approved for the treatment of UC”, the “inducing and maintaining clinical response, clinical remission, and mucosal healing” value in series [4] is reported as “more effective than placebo”.
Regarding `NC(CO)(CO)CO` [tromethamine], the “solubility of tromethamine in Capryol PGMC” value in series [5] is given as “some insolubility”.
